Common to all, as to type: functional, cell-based
Series [1] deals with T1, ATP-dependent translocase ABCB1 (Homo sapiens, UniProt P08183). Description: TP_TRANSPORTER: increase in Daunomycin intracellular accumulation (Daunomycin: 0.05 uM, BiochaninA: 50 uM) in MDA435/[…] cell.
In series [2] the target is T1, ATP-dependent translocase ABCB1. The experiment in a line: TP_TRANSPORTER: cell accumulation of daunomycin in MDA435/LCC6MDR1 cells.
For series [3] the target is unchanged. The experiment in a line: TP_TRANSPORTER: increase in Daunomycin intracellular accumulation (Daunomycin: 0.05 uM, Morin: 50 uM) in MDA435/[…] cells.
Series [4] has the same target. Description: TP_TRANSPORTER: increase in Daunomycin intracellular accumulation (Daunomycin: 0.05 uM, Silymarin: 50 uM) in MDA435/LCC6 MDR1 cells. The conditions noted are these: mda-mb-435/lcc6 mdr1, 50 µM.

T1 sequence (P08183 whole entry): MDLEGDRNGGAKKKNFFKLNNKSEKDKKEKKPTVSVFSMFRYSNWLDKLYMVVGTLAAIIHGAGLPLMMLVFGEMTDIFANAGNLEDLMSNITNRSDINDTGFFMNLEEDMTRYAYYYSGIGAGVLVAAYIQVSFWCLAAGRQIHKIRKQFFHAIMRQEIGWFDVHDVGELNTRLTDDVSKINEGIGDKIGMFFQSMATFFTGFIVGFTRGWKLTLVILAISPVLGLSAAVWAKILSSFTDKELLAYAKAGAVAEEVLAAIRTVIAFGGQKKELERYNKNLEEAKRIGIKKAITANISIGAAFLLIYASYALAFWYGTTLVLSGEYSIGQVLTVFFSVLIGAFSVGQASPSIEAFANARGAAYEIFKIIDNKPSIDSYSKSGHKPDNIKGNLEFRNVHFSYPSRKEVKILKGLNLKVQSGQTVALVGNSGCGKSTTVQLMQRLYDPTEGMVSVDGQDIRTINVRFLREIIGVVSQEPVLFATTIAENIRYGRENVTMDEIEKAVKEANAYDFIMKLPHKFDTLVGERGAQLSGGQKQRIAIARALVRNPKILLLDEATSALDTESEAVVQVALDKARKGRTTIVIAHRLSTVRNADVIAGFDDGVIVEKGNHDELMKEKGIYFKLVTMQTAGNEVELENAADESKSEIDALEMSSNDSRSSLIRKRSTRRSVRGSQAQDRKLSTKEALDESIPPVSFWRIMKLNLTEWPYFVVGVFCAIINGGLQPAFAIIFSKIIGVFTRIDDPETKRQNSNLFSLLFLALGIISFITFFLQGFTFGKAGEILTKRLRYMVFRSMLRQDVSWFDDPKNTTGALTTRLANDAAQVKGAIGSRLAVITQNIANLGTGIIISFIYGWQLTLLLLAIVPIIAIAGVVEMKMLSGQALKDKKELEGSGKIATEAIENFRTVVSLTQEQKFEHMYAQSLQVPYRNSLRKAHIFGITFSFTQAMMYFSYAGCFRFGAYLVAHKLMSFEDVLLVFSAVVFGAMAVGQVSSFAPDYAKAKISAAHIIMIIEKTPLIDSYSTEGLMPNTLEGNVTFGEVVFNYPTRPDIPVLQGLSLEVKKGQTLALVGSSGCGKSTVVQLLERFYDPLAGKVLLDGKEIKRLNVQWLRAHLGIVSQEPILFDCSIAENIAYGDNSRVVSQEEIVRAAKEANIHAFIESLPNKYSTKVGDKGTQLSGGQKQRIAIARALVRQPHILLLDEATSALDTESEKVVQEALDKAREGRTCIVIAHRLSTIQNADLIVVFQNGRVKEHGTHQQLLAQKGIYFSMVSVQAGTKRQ

Regarding `COc1ccc(-c2coc3cc(O)cc(O)c3c2=O)cc1` [BIOCHANIN], the Activity result was “inhibitor [(at a rough estimate) 645 % of control]” in series [1] and “inhibitor [+]” in series [2].
In the case of `O=c1c(O)c(-c2ccc(O)cc2O)oc2cc(O)cc(O)c12` [MORIN], the results for the Activity entry in series [3] and in series [2] were “inhibitor [(at a rough estimate) 585 % of control]” and “inhibitor [+]”, respectively.
In the case of `O=C(CCc1ccc(O)cc1)c1c(O)cc(O)cc1O` [PHLORETIN], the Activity result in series [2] is “inhibitor [+]”.
`COc1ccc(CCN(C)CCCC(C#N)(c2ccc(OC)c(OC)c2)C(C)C)cc1OC` (stereo not drawn) [VERAPAMIL]: in series [2], the Activity entry was “inhibitor [+]”.
On to SILYMARIN, for which the values for the Activity result in series [4] and in series [2] were “inhibitor [(at a rough estimate) 420 % of control]” and “inhibitor [+]”, respectively.

(Values after ChEMBL document CHEMBL2074188, “Effects of the flavonoids biochanin A, morin, phloretin, and silymarin on P-glycoprotein-mediated transport” (J Pharmacol Exp Ther, 2003).)
